Data reported in patent publication US20150206621A1, “Electrical Insulator Comprising An Organofluorine Compound And Method For Producing It” (priority 2012, published 2015).

Experiment: toxicity / lethal concentration LC50
Type: in vivo

Row | Compound | LC50 (in vivo) | toxicity (in words) (in vivo) | risk for human toxicity (in words) (concluded from available results of mammalian HFC (hydrofluorocarbon) tests)
1 | O=C(C(F)(F)C(F)(F)F)C(F)(C(F)(F)F)C(F)(F)F [C6-ketone, 1,1,1,2,4,4,5,5,5-Nonafluoro-2-(trifluoromethyl)pentan-3-one] | about 100'000 ppm | non-toxic | –
2 | O=C(C(F)(F)F)C(F)(C(F)(F)F)C(F)(F)F [C5-ketone, 1,1,1,3,4,4,4-heptafluoro-3-(trifluoromethyl)butan-2-one] | – | practically non-toxic | –
3 | FC(F)(F)COC(F)(F)F [2,2,2-trifluoroethyl-trifluoromethyl ether] | – | – | low risk for human toxicity
